Assay results from patent publication US7109181B2, “Joint lubrication with P2Y purinergic receptor agonists” (Inspire Pharmaceuticals, Inc., priority 2001, dated 2006).

These compounds were tested on synovial fibroblasts (assay: Measurement of cytosolic calcium in cultured synovial fibroblasts (Fluo-3 AM, FLIPR)). Details: synovial fibroblasts stimulated with increasing concentrations of P2Y receptor agonists; FIG. 1.
Assay type: cell-based
Source text: The pharmaceutical utility of compounds of this invention is indicated by the cytosolic calcium assay for P2Y2 and other P2Y receptor activity. This widely used assay, as described in Pendergast, et al. (2001) (Bioorg. Med. Chem. Lett. 11, 157-160), relies on the measurement of increased cytosolic calcium levels to determine the biological activity of compounds that activate receptors linked via G-proteins to phospholipase C. The efficacy of these compounds is reflected in their ability to alter and/or enhance the secretory activity of the joints, including but not limited to, the knee, hip, and shoulder, to effectuate the agent's target response. The target response is the improvement of joint lubrication and movement.
A conventional technique was used to detect increases in cytosolic calcium induced by P2Y receptor agonists, a technique familiar to those skilled in the art. Cells were seeded in 96-well plates and used for cytosolic calcium assays. On the day of the assay, the growth medium was aspirated and replaced with a solution of Fluo-3 AM (2.5 μM final concentration) in an assay buffer consisting of (mM): KCl (10), NaCl (118), CaCl2 (2.5), MgCl2 (1), HEPES (20), glucose (10), pH 7.4. Probenecid (Sigma Chemical Co.) was added to the dye load and dye wash medium at a working concentration of 2.5 mM to increase dye retention in the cells. After a 60 minute incubation with Fluo-3 AM at 25° C., cells were washed free of dye (Columbus Plate Washer, TECAN U.S., Inc., Research Triangle Park, N.C.) and were stimulated with increasing concentrations of P2Y receptor agonists. Intracellular calcium levels were simultaneously monitored in each well by measuring the changes in fluorescence intensity using the FLIPR (Molecular Devices Corp., Sunnyvale, Calif.).
Synovial fibroblasts were subjected to the cytosolic calcium assay described above. […] The induction of increases in cytosolic calcium by ATP and UTP in synovial fibroblasts indicated the pharmaceutical utility of P2Y2 receptor agonists in the joint.

SMILES | effect on cytosolic calcium levels
O=c1ccn([C@@H]2O[C@H](COP(=O)(O)OP(=O)(O)OP(=O)(O)O)[C@@H](O)[C@H]2O)c(=O)[nH]1 [UTP, uridine-5′-triphosphate] | stimulate increases in cytosolic calcium
CSc1nc(N)c2ncn([C@@H]3O[C@H](COP(=O)(O)OP(=O)(O)O)[C@@H](O)[C@H]3O)c2n1 [2-methylthioADP, reference compound] | did not alter cytosolic calcium concentration
Nc1ncnc2c1ncn2[C@@H]1O[C@H](COP(=O)(O)OP(=O)(O)OP(=O)(O)O)[C@@H](O)[C@H]1O [ATP, adenosine-5′-triphosphate] | stimulate increases in cytosolic calcium
